In US7691805B2, “Antimicrobial compounds” (Neobiotics AB, priority 2004, dated 2010):
Converted amounts (≈) assume the structure as drawn.

Legend:
Streptococcus: group B = assay: Agar well diffusion; details: 40 ul of 1 mg/ml in DMSO per well
L. monocytogenes = assay: Agar well diffusion; details: 40 ul of 1 mg/ml in DMSO per well
[1] = test system: α-haemolytic Streptococci; assay: Agar well diffusion; details: 40 ul of 1 mg/ml in DMSO per well
[2] = test system: Staphylococci incl. multiresistant MRSA; assay: Agar well diffusion; details: 40 ul of 1 mg/ml in DMSO per well
Streptococcus: group A = assay: Agar well diffusion; details: 40 ul of 1 mg/ml in DMSO per well
Streptococcus: group G = assay: Agar well diffusion; details: 40 ul of 1 mg/ml in DMSO per well
Solubility = type: physicochemical; details: KCl gradient eluent during ion exchange isolation
S.aureus = assay: MIC by broth dilution; type: cell-based; details: growth media without DMSO
Procedure: (§1) MIC/MBC determinations were performed by broth dilution according to established procedures, well known for a person skilled in the art.

streptococcal challenge = assay: Lethal streptococcal challenge in the mouse; type: in vivo
GAS = assay: MIC by broth dilution; type: cell-based, group A Streptococci; details: growth media without DMSO
Procedure: as §1

Streptococcus: group C = assay: Agar well diffusion; details: 40 ul of 1 mg/ml in DMSO per well
[3] = test system: Aspergillus niger ATCC 16404; assay: Antifungal MIC in Sabouraud broth; type: cell-based; details: 25° C. for 7 days; inoculum 10^3-10^4 cfu/ml
Procedure: (§2) The minimal inhibitory concentration (MIC) was determined using a method with Sabouraud broth (Becton Dickinson) and an initial inoculum 10^3-10^4 cfu/ml. Polypropylene 96-well plates (Nunc) were incubated at 25° C. for 48 h (for Candida albicans ATCC 10231) or 7 days (for Aspergillus niger ATCC 16404). The MIC was taken as the lowest drug concentration at which noticeable growth was inhibited. The experiments were performed in duplicate.

[4] = test system: Candida albicans ATCC 10231; assay: Antifungal MIC in Sabouraud broth; type: cell-based; details: 25° C. for 48 h; inoculum 10^3-10^4 cfu/ml
Procedure: as §2

MRSA = assay: Growth inhibition of clinical isolates; details: approximately 100 strains of MRSA, several with additional resistance markers
S. pneumoniae = assay: Agar well diffusion; details: 40 ul of 1 mg/ml in DMSO per well
[5] = test system: CNS incl. resistant and multiresistant MRSE; assay: Agar well diffusion; details: 40 ul of 1 mg/ml in DMSO per well
labial herpes = assay: Topical application in softening cream to a beginning labial herpes outbreak; type: in vivo, human; details: 0.2 ml solution (0.1 g/l) in softening cream on the lip; performed twice
Procedure: Cp1 was added to a softening cream and 0.2 ml solution (0.1 g/l) was applied to an area of a beginning labial herpes outbreak on the lip of a person. After 3-4 hours the symptoms was gone. The experiment was performed twice.

[6] = test system: E. coli and other Gram-negatives; assay: Agar well diffusion

CC(C)CC(NC(=O)C(CCCN=C(N)N)NC(=O)OCc1ccccc1)C(=O)N[C@H](CNC(=O)/C=C/c1ccccc1)C(C)C (stereo in doubt) [Cp1, (2S)-2-[(N^α-Benzyloxycarbonyl-Arginyl-Leucyl)-Amino]-1-Trans-Cinnamoylamino-3-Methylbutane]
antibacterial effect (Streptococcus: group B): + | antibacterial effect (L. monocytogenes): + | antibacterial effect [1]: − | antibacterial effect [2]: + | antibacterial effect (Streptococcus: group A): + | antibacterial effect (Streptococcus: group G): + | solubility in the presence of salts (Solubility): weak solubility | MIC (S.aureus): approximately 16 mg/L | protective capacity for lethal streptococcal challenge (streptococcal challenge): strong protective capacity | MIC (GAS): approximately 16 mg/L | antibacterial effect (Streptococcus: group C): + | MIC Aspergillus niger ATCC 16404 [3]: 64 µg/mL (≈ 101 µM) | MIC Candida albicans ATCC 10231 [4]: 32 µg/ml | growth inhibition of MRSA strains (MRSA): strongly inhibited in their growth | antibacterial effect (S. pneumoniae): + | antibacterial effect [5]: + | time after which the symptoms were gone (labial herpes): 3 to 4 h | activity against gram-negative bacteria [6]: low or no activity | antibacterial effect ([6]; E. coli and other Gram-negatives, 40 ul of 1 mg/ml in DMSO per well): −
